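Compound exposure: 48 hours, 5 concentrations, 96-well plates. The concentration for 50% growth inhibition is given as GI50. Definition used: TGI = concentration required for complete inhibition of growth.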 Where only a bound is given, the exact number is not on record here.

Experimental findings from PubChem BioAssay (NCI) are described below.

Holding throughout (experiment): DTP human tumour cell line panel, 48 h
In test [1] the test system is MDA-MB-435.
For test [2], the system named is HCT-116 colon.
The subject of test [3] is HOP-92 NSCLC.
The test system of test [4] is IGROV1 ovarian.
The test system of test [5] is OVCAR-3 ovarian.
Test [6] has as its system PC-3 prostate.
Test [7] has as its system SN12C renal.
Test [8] deals with NCI-H226 lung.
Test [9] has as its system HCT-15 colon.
Test [10] relates to 786-0 renal.

In general, TGI refers to the concentration giving total growth inhibition. Turning to `CC1=CC2=C(C(N)=O)C(=O)OC2(C)C(c2ccccc2)C1` (stereo not drawn), the total growth inhibition concentration (TGI) in test [1], in [2], in test [3], in test [4], in test [5] and in test [6] was over 100 µM throughout. Moreover, the concentration for total growth inhibition (TGI) in test [7], in test [8], in [9] and in test [10] was over 100 µM throughout.
In general, GI50 refers to the concentration that inhibits growth by half. Regarding `C#C[C@@]1(O)[C@@H](CO)O[C@@H](n2ccc3c(N)ncnc32)[C@@H]1O`, the GI50 in test [1] is 1.48 µM; in test [2] it was 0.595 µM; in test [3], 2.04 µM; in test [4] it was 1.43 µM; in [5], 2.96 µM; in [6] it was 0.808 µM. In addition, the GI50 is 0.798 µM in test [7], 2.05 µM in [8], 0.892 µM in test [9] and 1.63 µM in [10]. Besides, the TGI in [1] was 3.49 µM; in [2] it was 10.8 µM; in test [3], 5.56 µM; in test [4], 5.85 µM; in test [5], 12 µM; in test [6] it was 3.54 µM. The TGI was 3.91 µM in [7], 4.85 µM in test [8], 4.62 µM in [9] and 6.15 µM in test [10].
On to `Nc1ccn(C2CC(O)C(CO)O2)c(=O)n1` (stereo not drawn), for which the GI50 in test [1], in test [2], in test [3], in test [4], in test [5] and in [6] was over 5000 µM in each case. Moreover, the GI50 in test [7], in test [8], in test [9] and in [10] was over 5000 µM throughout. Also, the TGI in test [1], in test [2], in [3], in test [4], in test [5] and in test [6] was over 5000 µM in each case. Moreover, the TGI in test [7], in test [8], in test [9] and in [10] was over 5000 µM in each case.
Consider `CCOC(=O)Cn1c(C)c(/C=N/NC(=O)c2cc3c(ccc4ccccc43)o2)c2ccccc21`, for which the GI50 in test [1] was 0.0474 µM; in test [2] it was 0.338 µM; in test [3], 0.354 µM; in test [4], 0.527 µM; in test [5], 0.319 µM; in test [6], 0.332 µM. Besides, the GI50 in test [7] was 0.707 µM; in [8], 0.801 µM; in test [9], 0.408 µM; in [10] it was 0.491 µM. For the same molecule, the concentration for total growth inhibition (TGI) worked out at 0.251 µM in test [1]; 1.46 µM in test [2]; 4.94 µM in test [3]; 3.47 µM in [4]; 1.87 µM in test [5]; 6 µM in test [6]. In addition, the TGI in [7] worked out at 3.85 µM; in test [8] it was 5.39 µM; in [9] it was 5.45 µM; in test [10], 2.24 µM.
As for `O=c1oc2ccc(Cl)cc2c(=O)n1-c1cc(C(F)(F)F)cc(C(F)(F)F)c1`, the GI50 in test [1] was 0.313 µM; in [2], 0.277 µM; in test [3], 0.112 µM; in test [4], 0.412 µM; in [5], 0.276 µM; in test [6], 0.302 µM. For the same molecule, the GI50 in test [7] was 0.259 µM; in test [8], 0.305 µM; in test [9] it was 0.306 µM; in [10] it was 0.316 µM. Besides, the TGI in [1] amounted to 2.07 µM; in test [2] it was 1.21 µM; in test [3], 0.479 µM; in test [4], 12.9 µM; in [5], 10.7 µM; in [6] it was 4.49 µM. The total growth inhibition concentration (TGI) came out at 3.8 µM in test [7], 2.21 µM in test [8], 1.78 µM in test [9] and 1.14 µM in test [10].
With `COc1ccc(/C=C/C(=O)c2ccc3cc(OC)c(OC)cc3c2)cc1OC`, the GI50 in test [1] is 3.06 µM; in test [2], 2.64 µM; in [3], 1.65 µM; in [4], 4.72 µM; in test [5] it was 3.2 µM; in test [6] it was 3.08 µM. The GI50 is 3.41 µM in [7], 2.97 µM in test [8], 2.69 µM in [9] and 4.19 µM in test [10]. Further, the TGI is 18.1 µM in [1]; over 100 µM in test [2]; 6.26 µM in test [3]; 63.4 µM in test [4]; 13.5 µM in test [5]; 13.3 µM in test [6]. Also, the TGI in [7] was 31.2 µM; in test [8], 13.5 µM; in test [9], 40.8 µM; in test [10] it was 27.9 µM.
As to `COc1cccc(-n2ncc3c(N/N=C/c4ccc(S(C)(=O)=O)cc4)ncnc32)c1`, the GI50 in test [1] was 3.55 µM; in test [2] it was 8.46 µM; in test [3], 7.36 µM; in [4] it was 11 µM; in [5], 7.41 µM; in test [6], 6.63 µM. Moreover, the GI50 in test [7] is 9.88 µM; in test [8], 5.46 µM; in test [9], over 25 µM; in test [10], 7.1 µM. The TGI is over 25 µM in test [1]; over 25 µM in test [2]; 18.7 µM in [3]; over 25 µM in test [4]; over 23 µM in test [5]; over 20.9 µM in test [6]. In addition, the TGI in [7] is over 25 µM; in [8], 18.1 µM; in [9], over 25 µM; in test [10], 20.1 µM.
`Cc1ccc(N=Nc2c(N)nn(-c3ccccc3)c2N)cc1`: the GI50 is 0.177 µM in test [1]; 0.542 µM in test [2]; 3.44 µM in [3]; 4.5 µM in [4]; 0.705 µM in test [5]; 1.53 µM in [6]. Moreover, the GI50 in test [7] is 7.66 µM; in test [8] it was 59.4 µM; in test [9] it was 0.612 µM; in test [10], 0.755 µM. For the same molecule, the TGI is 0.568 µM in test [1]; over 100 µM in test [2]; 9.05 µM in test [3]; over 100 µM in test [4]; 3.58 µM in [5]; 6.17 µM in [6]. In addition, the total growth inhibition concentration (TGI) in [7], in test [8] and in [9] was over 100 µM in each case.
As for `COc1ccc2c(c1)sc1nc(-c3ccccc3)c(-c3ccc(O)c(OC)c3)n12`, the GI50 in test [1] is 1.42 µM; in test [2], 4.95 µM; in [3], 28 µM; in test [4], over 100 µM; in test [5], 10.1 µM; in test [6], 26.3 µM. The GI50 in [7] was 80.4 µM; in test [8] it was 22 µM; in test [9] it was 4.03 µM; in test [10] it was 30.9 µM. Besides, the concentration for total growth inhibition (TGI) in test [1] is 5.59 µM; in [2], over 100 µM; in [3], over 100 µM; in test [4], over 100 µM; in [5] it was 63.8 µM; in [6], over 100 µM. The TGI in test [7], in test [8], in test [9] and in [10] was over 100 µM each time.
As for `O=C1c2cc3c(cc2[C@@H]2[C@H]1c1ccc([N+](=O)[O-])cc1C(=O)N2CCCCl)OCO3`, the GI50 is under 0.01 µM in test [1]; under 0.01 µM in test [2]; under 0.03 µM in test [3]; under 0.01 µM in test [4]; 0.073 µM in test [5]; under 0.01 µM in [6]. Also, the GI50 in test [7] is under 0.01 µM; in test [8], under 0.01 µM; in [9], under 0.0145 µM; in test [10], under 0.01 µM. Besides, the concentration for total growth inhibition (TGI) in test [1] was under 0.0422 µM; in [2], 15.7 µM; in test [3], over 100 µM; in [4], over 100 µM; in [5], 0.456 µM; in test [6], over 44.5 µM. The concentration for total growth inhibition (TGI) is 0.136 µM in [8], over 40.6 µM in test [9] and under 0.0135 µM in test [10].
With `CCOC(=O)c1ccc(Nc2sc(C(=O)c3cccc([N+](=O)[O-])c3)c(N)c2C#N)cc1`, the GI50 in [1] was 0.0309 µM; in [2], 0.0505 µM; in [3], 0.109 µM; in test [4] it was 0.0244 µM; in [5], 0.0218 µM; in test [6] it was 0.179 µM. Besides, the GI50 is 0.497 µM in [7], 4.67 µM in test [8], 0.102 µM in test [9] and 0.122 µM in [10]. Moreover, the concentration for total growth inhibition (TGI) in test [1] was 0.264 µM; in test [2], 4.17 µM; in [3], 28.1 µM; in test [4], 26 µM; in [5], 0.0617 µM; in test [6], over 32.1 µM. The total growth inhibition concentration (TGI) was over 46.7 µM in test [7], 99.5 µM in test [8], over 100 µM in [9] and 15.3 µM in [10].
As for `ICCC(c1ccccc1)(c1ccccc1)c1ccccc1`, the GI50 in test [1] was 2.14 µM; in test [2], 2.55 µM; in test [3], 2.7 µM; in test [4] it was 4.17 µM; in test [5] it was 3.85 µM; in test [6] it was 4.32 µM. The GI50 was 12.2 µM in test [7], 13.7 µM in [8], 3.56 µM in test [9] and 3.75 µM in test [10]. The TGI is 6.72 µM in [1]; 13.5 µM in test [2]; 18.2 µM in test [3]; 16.6 µM in test [4]; 15 µM in test [5]; 19.4 µM in test [6]. Besides, the TGI in test [7] was 27.2 µM; in test [8], 27.3 µM; in test [9] it was 15.5 µM; in test [10] it was 14.1 µM.
Consider `C[C@H]1[C@H](C)CC[C@]2(C(=O)O)CC[C@]3(C)C(=CC[C@@H]4[C@@]5(C)CC[C@H](OC(=O)/C=C/c6ccc(O)cc6)C(C)(C)[C@@H]5CC[C@]43C)[C@H]12`, for which the GI50 in [1] is 6.38 µM; in [2] it was 3.09 µM; in test [3], 16.6 µM; in [4], 8.39 µM; in test [5], 12.5 µM; in test [6], 6.94 µM. Besides, the GI50 in test [7] is 2.15 µM; in [8] it was 15.1 µM; in [9] it was 10.9 µM; in [10] it was 3.57 µM. Further, the TGI in test [1] came out at 19.7 µM; in test [2], 7.93 µM; in test [3] it was 37.2 µM; in test [4], 45.8 µM; in [5], 39.2 µM; in [6] it was 24.6 µM. For the same molecule, the TGI in [7] amounted to 5.65 µM; in test [8], 29.2 µM; in test [9], 33 µM; in test [10], 9.53 µM.
On to `CC[C@H](C)[C@H](NC(=O)Nc1ccccc1)C(=O)N(C)[C@H](C[C@@H](OC(C)=O)c1nc(C(=O)N[C@@H](Cc2ccccc2)C[C@H](C)C(=O)OC)cs1)C(C)C`, for which the GI50 was 0.416 µM in test [1]; 3.33 µM in [2]; 1.34 µM in [3]; 3.28 µM in [4]; 2.32 µM in test [5]; 3.47 µM in test [6]. The GI50 was 8.31 µM in test [7], 8.83 µM in test [8], 3.58 µM in [9] and 3.56 µM in test [10]. Besides, the TGI in test [1] was 1.86 µM; in test [2], over 100 µM; in test [3], 62.9 µM; in test [4], over 100 µM; in [5], 5.96 µM; in test [6], over 100 µM. Besides, the TGI in test [7], in [8], in test [9] and in test [10] was over 100 µM each time.
As for `O=C(O)c1ccc(NCc2nc3cc4ccccc4cc3[nH]2)cc1`, the TGI in [1], in test [2], in test [3], in test [4], in test [5] and in test [6] was over 100 µM in each case. The TGI in test [7], in [8], in [9] and in test [10] was over 100 µM throughout.
